Marks after values point to notes of the source that are not given here.
What was measured:
[1] = tested on: lung DNA; assay: Bulky DNA adducts in lung by 32P postlabeling, Study 1; assay type: in vivo, Swiss H mice
Method: (§1) Each group was composed of 10 female mice.
(§2) DNA was extracted from tissue specimens (50 mg) collected individually from the lungs of 40 Swiss H mice used in Study 1 and from lungs, heart and liver of 80 ICR (CD-1) mice used in Study 2, as previously described. Bulky DNA adducts, after butanol enrichment, and 8-hydroxy-2’-deoxyguanosine (8-oxo-dGuo) were measured by ^32P postlabeling as previously described.

[2] = mice, 1,000 mg/kg diet; cited from earlier work
[3] = tested on: normochromatic erythrocytes; assay: Systemic genotoxicity: frequency of MN NCE in peripheral blood; assay type: in vivo, Swiss H mice; set-up: unit not given here
[4] = tested on: lung DNA; assay: Bulky DNA adducts by 32P postlabeling, Study 2, lung; assay type: in vivo, ICR (CD-1) mice
Method: as §2

[5] = tested on: urinary bladder miRNAs; assay: miRNA expression (microarray), Study 3, urinary bladder; assay type: in vivo, ICR (CD-1) mice
Method: as §1
The urine was collected for 8 h and pooled from the mice belonging to each experimental group in Study 3 by using metabolic cages during the day preceding euthanasia of mice. Immediately after sacrifice, a bronchoalveolar lavage (BAL) was performed and used for preparing BALF, and the blood was collected and used for preparing serum. BALF and blood serum were pooled within each experimental group. The organs reported in the general design of the studies were collected, as previously described. Immediately after collection, each organ or fluid was immersed in RNAlater and kept at -80°C for miRNA analysis. Portions of the organs used in Study 1 and Study 2 were stored at -80°C for evaluating DNA damage.
For evaluating the expression of pulmonary miRNAs we used the 7th generation miRCURY LNA™ microRNA Array (Exiqon), which contains 3,100 capture probes covering human, mouse and rat miRNAs. In particular, this array covers 1,135 mouse miRNAs, i.e. the 88.6% of the 1,281 mouse miRNAs listed in miRBase 19. Microarray analyses were carried out as previously described.
(§3) Treatment-related differences in body weights, in the frequency of MN NCE, and in the levels of pulmonary DNA adducts and 8-oxo-dGuo, all of them expressed as means ± SE within each group of mice, were evaluated for statistical significance by ANOVA followed by Student's t test for unpaired data. miRNA microarray data, after local background subtraction, log transformation, and normalization were analyzed by GeneSpring software (Agilent, Santa Clara, CA), and expression data were median centered by using the GeneSpring normalization option.

[6] = Body weight, Study 1; assay type: in vivo, Swiss H mice; conditions: after 10 weeks
From the text: (§4) Strain H neonatal mice, used in Study 1, were born at the Animal Laboratory of the National Center of Oncology (Sofia, Bulgaria). The mice were housed in Makrolon™ cages on sawdust bedding and maintained on standard rodent chow (Kostinbrod, Bulgaria) and allowed drinking water ad libitum. Swiss ICR (CD-1) mice, either neonatal (Study 2) or two- month old (Study 3), were purchased from Harlan Laboratories (San Pietro al Natisone, Udine, Italy). The mice were housed in Makrolon™ cages on sawdust bedding and maintained on standard rodent chow (Teklad 9607, Harlan Laboratories) and tap water ad libitum. The animal room temperature was 23 ± 2°C, with a relative humidity of 55% and a 12 h day-night cycle. Housing and treatments of mice were in accordance with NIH, European (2010/63 UE Directive), and institutional guidelines. The issuance of the NIH Office of Laboratory Animal Welfare (OLAW) with the University of Genoa bears the identification number A5899-01 and is effective until February 28, 2021. The Institutional Animal Care and Use Committee (IACUC) protocol was approved by the Fox Chase Cancer Center Committee on April 13, 2015.
(§5) In Study 1 and Study 2, feeding of the drug-containing diet started after weanling (about 4 weeks) and continued until the 10th week of life.
as §3

[7] = Body weight, Study 3; assay type: in vivo, ICR (CD-1) mice; conditions: in g
From the text: as §1, §4
Celecoxib was supplied by the US National Cancer Institute (NCI) via MRIGlobal (Kansas City, MO).
as §5, §3

[8] = tested on: liver DNA; assay: Bulky DNA adducts by 32P postlabeling, Study 2, liver; assay type: in vivo, ICR (CD-1) mice; conditions: for Bulky DNA adducts: Liver; for increase of DNA adduct levels over sham-exposed mice: liver
Method: as §1, §2

[9] = females, MCS-exposed mice given celecoxib
[10] = males, MCS-exposed mice given celecoxib

SMILES: Cc1ccc(-c2cc(C(F)(F)F)nn2-c2ccc(S(N)(=O)=O)cc2)cc1 [Celecoxib, 4-[5-(4-methylphenyl)-3-(trifluoromethyl)-1H-pyrazol-1-yl] benzene-1-sulfonamide]
- increase of pulmonary DNA adducts vs sham-exposed mice ([1]; MCS-exposed mice given celecoxib): 8.5 fold
- increase of pulmonary DNA adducts vs sham-exposed mice ([1]; combined genders): 3.3 fold
- Bulky DNA adducts ([1]; lung, F): 4.3 ± 0.34^b adducts/10^8 nucleotides
- Bulky DNA adducts ([1]; lung, M): 4.3 ± 0.40^b adducts/10^8 nucleotides
- Bulky DNA adducts ([1]; lung, M + F): 4.3 ± 0.25^b adducts/10^8 nucleotides
- autoradiographic spots absent in sham-exposed mice ([1]; lung, MCS-free mice): 3
- plasma concentration [2]: 1600 ng/mL
- frequency of MN NCE ([3]; females, 4 months of age): 0.8 ± 0.08
- frequency of MN NCE [3, 9]: 1.2 ± 0.08
- frequency of MN NCE ([3]; males, 4 months of age): 1.4 ± 0.12
- frequency of MN NCE [3, 10]: 2.2 ± 0.15
- Bulky DNA adducts ([4]; F): 3.7 ± 0.31^c adducts/10^8 nucleotides
- Bulky DNA adducts ([4]; M): 4.4 ± 0.56^c adducts/10^8 nucleotides
- Bulky DNA adducts ([4]; M + F): 4.0 ± 0.31^c adducts/10^8 nucleotides
- decrease of DNA adduct levels vs MCS-exposed mice without celecoxib ([4]; combined genders): 1.6 fold
- decrease of DNA adduct levels vs MCS-exposed mice without celecoxib ([4]; males): 1.5 fold
- decrease of DNA adduct levels vs MCS-exposed mice without celecoxib ([4]; printed 'males' a second time): 1.7 fold
- increase of DNA adduct levels over sham-exposed mice ([4]; combined genders): 2.7 fold
- increase of DNA adduct levels over sham-exposed mice ([4]; females): 2.5 fold
- increase of DNA adduct levels over sham-exposed mice ([4]; males): 2.9 fold
- autoradiographic spots formed ([4]; smoke-free mice): 3
- miR-30c-2-3p downregulation ([5]; MCS-exposed mice): 7 fold
- miR-30e upregulation ([5]; MCS-exposed mice): 6 fold
- miR-185-5p downregulation ([5]; MCS-exposed mice): 14 fold
- miR-701-3p upregulation ([5]; MCS-exposed mice): 5 fold
- miR-802-3p upregulation ([5]; MCS-exposed mice): 5 fold
- miR-1964-5p downregulation ([5]; MCS-exposed mice): 5 fold
- upregulated/downregulated miRNAs ([5]; MCS-exposed mice): 8/12
- miR-30c-2-5p downregulation ([5]; MCS-free mice): 10 fold
- miR-30e downregulation ([5]; MCS-free mice): 8 fold
- miR-185-5p downregulation ([5]; MCS-free mice): 20 fold
- miR-301 downregulation ([5]; MCS-free mice): 8 fold
- upregulated/downregulated miRNAs ([5]; MCS-free mice): 0/10
- number of miRNAs modulated by celecoxib ([5]; high dose): 30
- body weight [6, 9]: 26.7 ± 0.56 g
- body weight ([6]; females): 27.8 ± 0.80 g
- body weight [6, 10]: 34.6 ± 1.55 g
- body weight ([6]; males): 37.2 ± 0.97 g
- body weight ([7]; females, MCS-exposed, high dose celecoxib): 26.7 ± 0.56
- body weight ([7]; females, MCS-exposed, low dose celecoxib): 30.9 ± 1.24
- body weight ([7]; females, smoke-free, high dose (1,600 mg/kg diet)): 31.5 ± 0.98
- body weight ([7]; females, smoke-free, low dose (20 mg/kg diet)): 32.6 ± 1.82
- body weight ([7]; males, smoke-free, high dose (1,600 mg/kg diet)): 42.1 ± 0.61
- Bulky DNA adducts ([8]; F): 1.8 ± 0.08^c adducts/10^8 nucleotides
- Bulky DNA adducts ([8]; M): 1.6 ± 0.12^a adducts/10^8 nucleotides
- Bulky DNA adducts ([8]; M + F): 1.7 ± 0.08^a adducts/10^8 nucleotides
- increase of DNA adduct levels over sham-exposed mice ([8]; MCS-exposed mice treated with celecoxib, females): 1.5 fold
- increase of DNA adduct levels over sham-exposed mice ([8]; MCS-exposed mice treated with celecoxib, males): 1.3 fold
- increase of DNA adduct levels over sham-exposed mice ([8]; MCS-exposed mice treated with celecoxib, mixed genders): 1.4 fold
- increase of DNA adduct levels over sham-exposed mice ([8]; combined genders): 1.4 fold
- increase of DNA adduct levels over sham-exposed mice ([8]; females): 1.5 fold
- increase of DNA adduct levels over sham-exposed mice ([8]; males): 1.3 fold
